Test results: patent US8476043B2, “Inhibitors for the soluble epoxide hydrolase” (The Regents of the University of California, priority 2004, dated 2013)
Values after ≈ are worked out from the molar mass of the structure shown.

Columns and labels:
rat sEH = target: T1, rat sEH (Rattus norvegicus, UniProt P80299); assay: Relative turnover of arachidonic acid epoxides by rat renal cortex cytosol; assay type: biochemical; conditions: Table 19, EET mixture hydrolyzed to 30% by rat renal cortex cytosol
T1 construct: EET fatty acid was hydrolyzed to 30% by rat renal cortex cytosol; from tissue; host or cells: rat renal cortex cytosol
T1 sequence (P80299 1-554): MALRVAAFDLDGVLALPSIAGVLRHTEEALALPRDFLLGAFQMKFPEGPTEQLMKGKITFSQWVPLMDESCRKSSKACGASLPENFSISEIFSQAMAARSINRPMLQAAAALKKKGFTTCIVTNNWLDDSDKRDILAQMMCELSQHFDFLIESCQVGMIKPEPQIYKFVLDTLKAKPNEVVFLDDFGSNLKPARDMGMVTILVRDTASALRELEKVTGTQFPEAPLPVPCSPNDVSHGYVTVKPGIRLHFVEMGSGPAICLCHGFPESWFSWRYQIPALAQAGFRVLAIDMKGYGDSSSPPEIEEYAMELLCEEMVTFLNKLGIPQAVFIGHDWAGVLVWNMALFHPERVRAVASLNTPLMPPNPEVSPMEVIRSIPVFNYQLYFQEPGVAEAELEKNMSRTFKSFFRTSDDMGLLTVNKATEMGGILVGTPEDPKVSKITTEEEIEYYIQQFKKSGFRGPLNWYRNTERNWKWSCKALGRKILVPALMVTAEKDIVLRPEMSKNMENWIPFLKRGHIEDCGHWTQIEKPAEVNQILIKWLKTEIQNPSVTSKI
Protocol: For epoxy fatty acid hydrolysis, the soluble epoxide hydrolase prefers substrates with epoxide moieties that are more distant from the carboxyl terminal. Specifically the substrate preference decreases in the order of 14,15-EET>11,12-EET>8,9-EET>>>5,6-EET for the epoxides of arachidonic acid. Independently, the relative substrate turnover of the epoxy arachidonates were calculated at 0.1:8.1:14.3 when a 1:1:2 mixture of 8,9-, 11,12-, and 14,15-EET fatty acid was hydrolyzed to 30% by rat renal cortex cytosol. By considering the primary pharmacophore of the urea to be a transition-state analog of epoxide hydrolysis, inhibitors have now been developed which incorporate long aliphatic acids. These compounds are better substrate and transition state mimics than those incorporating shorter aliphatic acids. Accordingly, optimal soluble epoxide hydrolase inhibitors can be obtained by producing compounds with aliphatic acid substituents (i.e. a tertiary pharmacophore) which are separated from the primary pharmacophore by an equivalent distance as the terminal acid is separated from the epoxide in optimal substrates. Within the enzyme active site, epoxy fatty acids have been predicted to exist in an extended or pseudo-linear confirmation. Therefore, both the epoxy fatty acids and the aliphatic acid containing urea structures were approximated as two dimensional linear representations and measurements were made on each species. The critical measurements taken were distances (in angstroms) from the carboxylate hydroxyl to the urea carbonyl and the urea nitrogens.

Solubility in water = assay type: physicochemical
[1] = Pharmacokinetics after oral gavage in mice; assay type: in vivo, male Swiss Webster mice
Protocol: Animals. Male Swiss Webster mice, 6 weeks-old, were obtained from Charles River (CA, USA). After 1-2 week acclimation period, healthy animals were assigned to study groups based on body-weight stratified randomization procedure. The body weight of animals used in all the experiments ranged from 28 g to 38 g.
Administration and measurement. Pharmacokinetic studies in mice used a 5 mg/kg dose of sEH inhibitors dissolved in corn oil and 4% DMSO administered orally. […] Then the samples were centrifuged at 6000 rpm for 5 min, and the ethyl acetate layer was dried under nitrogen. The residue was reconstituted in 25 μL of methanol, and aliquots (5 μL) were injected onto the LC-MS/MS system.
Analysis. Pharmacokinetics analysis was performed using SigmaPlot software system (SPSS science, Chicago, Ill.).

[2] = Microsomal, NADPH dependent metabolic stability in rat hepatic microsomes; assay type: in vitro ADME; conditions: 1 μM, NADPH generating system, P450 dependent
Protocol: FIG. 6 is a graph illustrating the metabolic stabilities of 1-adamantyl-3-dodecyl urea (686) and 1-cyclohexyl-3-dodecyl urea (297) in rat hepatic microsomes. Microsomes were incubated with 1 μM 686 or 297 in the presence of an NADPH generating system. Data are expressed as mean±SD of triplicate experiments.
To evaluate the metabolic stability of these inhibitors, the microsomal and NADPH dependent metabolism of a number of potent sEH inhibitors was evaluated. […] The first step in the metabolic transformation of the n-alkyl to n-alkanoic acid derivatives is an NAPDH dependent process carried out by cytochrome P450 dependent omega hydroxylation in rodent and human hepatic tissue preparations (see FIG. 8). When in vivo metabolism was evaluated, evidence for the beta-oxidation of the alkanoic acid derivatives was also found (see FIG. 9).

human sEH [3] = target: T2, human sEH (Homo sapiens, UniProt P34913); assay: sEH inhibition, spectrometric assay with racemic 4-nitrophenyl-trans-2,3-epoxy-3-phenylpropyl carbonate as substrate; assay type: biochemical; conditions: Table 5; spectrometric-based assay; read-out: Human sEH IC50
T2 construct: made in house
T2 sequence (P34913 1-555): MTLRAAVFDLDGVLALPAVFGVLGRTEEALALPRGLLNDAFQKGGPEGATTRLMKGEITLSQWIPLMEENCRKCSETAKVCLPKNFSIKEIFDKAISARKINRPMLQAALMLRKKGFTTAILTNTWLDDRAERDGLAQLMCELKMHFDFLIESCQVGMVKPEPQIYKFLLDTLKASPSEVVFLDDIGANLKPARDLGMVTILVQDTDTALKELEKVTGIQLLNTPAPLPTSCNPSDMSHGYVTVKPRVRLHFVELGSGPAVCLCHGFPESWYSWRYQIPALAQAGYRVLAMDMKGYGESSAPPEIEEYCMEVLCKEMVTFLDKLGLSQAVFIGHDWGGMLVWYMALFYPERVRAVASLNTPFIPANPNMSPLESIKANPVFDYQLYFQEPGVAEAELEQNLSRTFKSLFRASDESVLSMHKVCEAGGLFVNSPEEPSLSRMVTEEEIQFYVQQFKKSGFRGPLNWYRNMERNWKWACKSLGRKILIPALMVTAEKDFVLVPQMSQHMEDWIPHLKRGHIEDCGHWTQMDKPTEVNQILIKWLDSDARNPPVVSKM
Protocol: (§1) Recombinant mouse sEH and human sEH were produced in a baculovirus expression system and purified by affinity chromatography. […] Protein concentration was quantified by using the Pierce BCA assay using Fraction V bovine serum albumin as the calibrating standard.
(§2) IC50 values were determined in one of two method. One method uses racemic 4-nitrophenyl-trans-2,3-epoxy-3-phenylpropyl carbonate as substrate. […] Assays were performed in triplicate. […] The curve was generated from at least three separate runs, each in triplicate, to obtain the standard deviation (SD) given in Table 1 thru Table 4.

mouse sEH = target: T3, mouse sEH (Mus musculus, UniProt P34914); assay: as above; assay type: biochemical; conditions: Table 5; spectrometric-based assay; read-out: Mouse sEH IC50
T3 construct: made in house
T3 sequence (P34914 1-554): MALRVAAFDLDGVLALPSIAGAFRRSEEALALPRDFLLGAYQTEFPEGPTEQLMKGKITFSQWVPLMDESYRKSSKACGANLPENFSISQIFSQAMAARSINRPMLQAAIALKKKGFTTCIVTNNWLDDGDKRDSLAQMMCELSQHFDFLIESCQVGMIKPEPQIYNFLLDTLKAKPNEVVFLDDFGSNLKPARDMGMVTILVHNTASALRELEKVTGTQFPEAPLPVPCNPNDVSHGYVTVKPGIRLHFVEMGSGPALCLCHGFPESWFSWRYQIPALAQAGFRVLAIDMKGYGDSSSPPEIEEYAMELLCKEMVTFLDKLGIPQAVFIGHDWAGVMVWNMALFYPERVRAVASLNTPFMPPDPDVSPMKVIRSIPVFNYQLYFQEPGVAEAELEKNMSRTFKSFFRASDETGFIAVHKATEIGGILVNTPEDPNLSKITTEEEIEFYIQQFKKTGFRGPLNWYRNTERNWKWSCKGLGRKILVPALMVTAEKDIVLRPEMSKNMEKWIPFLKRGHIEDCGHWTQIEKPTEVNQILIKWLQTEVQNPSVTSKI
Protocol: as §1, §2

Solubility in oil = assay type: physicochemical; conditions: Table 5
human sEH [4] = target: T2, human sEH; assay: sEH inhibition, fluorescent assay with cyano(6-methoxy-naphthalen-2-yl)methyl trans-[(3-phenyloxiran-2-yl)methyl]carbonate as substrate; assay type: biochemical; conditions: for IC50: Table 5, fluorescent-based assay, 0.96 nM human sEH, pH 7.0, [S] = 5 μM, read-out: Human sEH IC50; for fold improvement in inhibition of the human enzyme: compared with 687 (compound 4)
Procedure, shortened: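 Affinity-purified recombinant human sEH from baculovirus expression; activity followed as formation of fluorescent 6-methoxy-2-naphthaldehyde from the carbonate substrate. IC50 by regression of at least five points, two on each side of the IC50 in the linear region, from at least three separate runs, each in triplicate.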

[5] = In vitro metabolism in liver microsomes and S9 fractions; assay type: in vitro ADME; conditions: rat and human microsomes, with NADPH
Text: Both rat and human microsomes were used for the 950 metabolism study.

| SMILES | time to reach the maximum concentration [1] [h] | metabolic stability in microsomal preparations [2] | Solubility in oil (Solubility in oil) | IC50 (human sEH [4]) [nM] | fold improvement in inhibition of the human enzyme (human sEH [4]) | other results |
| --- | --- | --- | --- | --- | --- | --- |
| CCCCCC1OC1C/C=C\C/C=C\C/C=C\CCCC(=O)O (centres unmarked) [14,15-EET] | – | – | – | – | – | Relative EET Turnover (rat sEH): 14.3 |
| CCCCCCCCCCCCNC(=O)NC12CC3CC(CC(C3)C1)C2 [Compound 686, 1-adamantyl-3-dodecylurea, reference compound] | 2 | rapidly metabolized | – | – | – | solubility of adamantyl compound relative to the corresponding cyclohexyl derivative (Solubility in water; 789 vs. 772, 790 vs. 791, 686 vs. 297): approximately 2 × |
| O=C(CCCCCCCCCCCNC(=O)NC12CC3CC(CC(C3)C1)C2)NS(=O)(=O)c1ccccc1 [Compound 914] | – | – | 5,000 μg/mL | 1.9 | about 1.5 fold | – |
| CCOCCOCCOCCCCCNC(=O)NC12CC3CC(CC(C3)C1)C2 [Compound 950] | – | – | – | – | – | major metabolite in vitro [5]: hydroxy metabolite was the major metabolite |

The next lines start with results.

| time to reach the maximum concentration [1] [h] | metabolic stability in microsomal preparations [2] | Solubility in oil (Solubility in oil) | IC50 (human sEH [4]) [nM] | fold improvement in inhibition of the human enzyme (human sEH [4]) | SMILES | other results |
| --- | --- | --- | --- | --- | --- | --- |
| 0.5 | stable | – | – | – | O=C(O)CCCCCCCCCCCNC(=O)NC12CC3CC(CC(C3)C1)C2 [Compound 687, 1-(1-adamantyl)-3-(12-dodecanoic acid)urea] | – |
| – | – | 4,000 μg/mL | 2.1 | about 1.5 fold | CS(=O)(=O)NC(=O)CCCCCCCCCCCNC(=O)NC12CC3CC(CC(C3)C1)C2 [Compound 848, N-[12-(3-Adamantan-1-yl-ureido)dodecanoyl]methanesulfonamide] | fold lower water solubility than compound 4 (687) (Solubility in water): 3 fold; solubility (Solubility in water; water, Table 5): 10 µg/mL (≈ 21.3 µM); IC50 (human sEH [3]): 100 ± 10 nM; IC50 (mouse sEH): 50 ± 10 nM |
